Laboratory results from US20040254161A1, “New benzothiazine and benzothiadiazine compounds” (priority 2003, published 2004).

What was measured:
AMPA receptors = assay: Excitatory currents induced by AMPA in Xenopus oocytes (two-electrode voltage-clamp); assay type: cell-based; conditions: Xenopus oocytes injected with rat cerebral cortex poly(A+) mRNA; AMPA 10 μM; 20-24° C., OR2 medium
Method: Study of the Excitatory Currents Induced by AMPA in Xenopus oocytes
mRNA's are prepared from cerebral cortex of male Wistar rats by the guanidinium thiocyanate/phenol/chloroform method. The poly (A^+) mRNA's are isolated by chromatography on oligo-dT cellulose and injected at a level of 50 ng per oocyte. The oocytes are incubated for 2 to 3 days at 18° C. to permit expression of the receptors and are then stored at 8-10° C.
Electrophysiological recording is carried out in a Plexiglass® chamber at 20-24° C. in OR2 medium (J. Exp. Zool., 1973, 184, 321-334) by the “voltage-clamp” method using two electrodes, with a third electrode placed in the bath serving as reference.
All the compounds are applied via the incubation medium and the electric current is measured at the end of the application period. AMPA is used in a concentration of 10 μM. For each compound studied, the concentration that doubles (EC2X) or quintuples (EC5X) the intensity of the current induced by AMPA alone (5 to 50 nA) is determined.

Row | Compound | melting point [°C] | EC2X (concentration that doubles the intensity of the current induced by AMPA alone) (AMPA receptors) [µM] | EC5X (concentration that quintuples the intensity of the current induced by AMPA alone) (AMPA receptors) [µM]
1 | Cl.NCc1cccc(Oc2ccc3c(c2)S(=O)(=O)NC2CCCN32)c1 (stereo not drawn) [Example 1, {3-[(5,5-Dioxido-2,3,3a,4-tetrahydro-1H-pyrrolo[2,1-c][1,2,4]-benzothiadiazin-7-yl)oxy]phenyl}methanamine hydrochloride] |  | 3.5 | 9.2
2 | CS(=O)(=O)NCc1cccc(Oc2ccc3c(c2)S(=O)(=O)NC2CCCN32)c1 (stereo not drawn) [Example 2, N-{3-[(5,5-Dioxido-2,3,3a,4-tetrahydro-1H-pyrrolo[2,1-c][1,2,4]-benzothiadiazin-7-yl)oxy]benzyl}methanesulphonamide] |  | 0.35 | 2.6
3 | CS(=O)(=O)NCc1ccc(Oc2ccc3c(c2)S(=O)(=O)NC2CCCN32)cc1 (stereo not drawn) [Example 21, N-{4-[(5,5-Dioxido-2,3,3a,4-tetrahydro-1H-pyrrolo[2,1-c][1,2,4]-benzothiadiazin-7-yl)oxy]benzyl}methanesulphonamide] |  | 0.1 | 0.56

More lines, main results first:

Row | melting point [°C] | Compound | EC2X (concentration that doubles the intensity of the current induced by AMPA alone) (AMPA receptors) [µM] | EC5X (concentration that quintuples the intensity of the current induced by AMPA alone) (AMPA receptors) [µM]
4 | 58 | CC(=O)NCc1cccc(Oc2ccc3c(c2)S(=O)(=O)NC2CCCN32)c1 (stereo not drawn) [Example 3, N-{3-[(5,5-Dioxido-2,3,3a,4-tetrahydro-1H-pyrrolo[2,1-c][1,2,4]-benzothiadiazin-7-yl)oxy]benzyl}acetamide] |  | 
5 | 104 to 113 | O=S1(=O)NC2CCCN2c2ccc(Oc3cccc(CNS(=O)(=O)C(F)(F)F)c3)cc21 (stereo not drawn) [Example 9, N-{3-[(5,5-Dioxido-2,3,3a,4-tetrahydro-1H-pyrrolo[2,1-c][1,2,4]-benzothiadiazin-7-yl)oxy]benzyl}(trifluoro)methanesulphonamide] |  | 
6 | 112 to 118 | CC(C)S(=O)(=O)NCc1cccc(Oc2ccc3c(c2)S(=O)(=O)NC2CCCN32)c1 (stereo not drawn) [Example 18, N-{3-[(5,5-Dioxido-2,3,3a,4-tetrahydro-1H-pyrrolo[2,1-c][1,2,4]-benzothiadiazin-7-yl)oxy]benzyl}propane-2-sulphonamide] |  | 
